In patent US20250176546A1, “ANTIMICROBIAL CaNCR PEPTIDE VARIANTS” (Donald Danforth Plant Science Center, priority 2022, published 2025):
≈ marks a conversion by molar mass, not a printed value. Read-outs that look alike come from different tables or passages of the source. Peptide text beside a SMILES is read from it.

What was measured:
[1] = system: Fusarium graminearum
[2] = system: Candida albicans (33795); test: In vitro antifungal activity (spectrophotometric) against human fungal pathogens; settings: Pichia pastoris-expressed peptide, half-strength potato dextrose broth
Experimental: (§1) The in vitro antifungal activity of these peptides was determined spectrophotometrically as described in previous publications (Sagaram et al. 2013: Islam et al. 2017) in half-strength potato dextrose broth.

[3] = system: Candida auris (38883); test: as above; settings: Pichia pastoris-expressed peptide, half-strength potato dextrose broth
Experimental: as §1

[4] = system: Candida glabrata (38827); test: as above; settings: Pichia pastoris-expressed peptide, half-strength potato dextrose broth
Experimental: as §1

[5] = system: Tricophyton rubrum (36381); test: as above; settings: Pichia pastoris-expressed peptide, half-strength potato dextrose broth
Experimental: as §1

[6] = system: Tricophyton metagrophytes (26103); test: as above; settings: Pichia pastoris-expressed peptide, half-strength potato dextrose broth
Experimental: as §1

[7] = system: Botrytis cinerea; test: Antifungal 96-well plate assay with resazurin cell viability readout; format: cell-based; settings: chemically synthesized peptides; 2-fold dilution series; 48 h incubation, then resazurin overnight; lowest concentration with no change in blue color
Experimental: Antifungal activity of NCR13_AlaV1-V5 was assessed at different concentrations using a 2-fold dilution series of each peptide. Antifungal activity of each peptide was determined spectrophotometrically using the 96-well plate assay. Around 45 μL of each peptide at different concentrations was added to each well of the microtiter plate containing 45 μL of ˜[…] spore suspension. The quantitative fungal growth inhibition was determined by measuring the absorbance at 595 nm using a (Tecan Infinite M200 ProTecan Systems Inc., San Jose, CA) microplate reader after 48 h. The fungal cell viability was determined by the resazurin cell viability assay. After incubation of the pathogen/peptide mixture for 48 h, 10 μl of 0.1% resazurin solution was added to each well. After incubation of the mixture overnight, a change in the color of the resazurin dye from blue to pink or colorless indicated the presence of live fungal cells. The MIC for each peptide was the lowest concentration of each peptide at which no change in blue color occurred.

Row | Compound | MIC (μM) Fusarium graminearum ([1]; 48 h) [µM] | MIC (μM) Botrytis cinerea [7] | also measured
1 | CC[C@H](C)[C@H](NC(=O)[C@H](CS)NC(=O)[C@H](CCCCN)NC(=O)[C@@H]1CCCN1C(=O)[C@@H](NC(=O)[C@H](CCCCN)NC(=O)[C@@H]1CCCN1C(=O)[C@H](CCCCN)NC(=O)[C@H](CCCNC(=N)N)NC(=O)[C@H](CS)NC(=O)[C@H](C)NC(=O)[C@H](Cc1ccccc1)NC(=O)[C@H](CCCCN)NC(=O)[C@H](CCCCN)NC(=O)[C@H](CS)NC(=O)[C@H](C)NC(=O)[C@H](C)NC(=O)[C@H](C)NC(=O)[C@H](C)NC(=O)[C@H](C)NC(=O)[C@H](CS)NC(=O)[C@@H]1CCCN1C(=O)[C@H](CCCCN)NC(=O)[C@@H](N)[C@@H](C)O)C(C)C)C(=O)N[C@@H](CC(N)=O)C(=O)NCC(=O)N[C@@H](Cc1ccccc1)C(=O)N[C@@H](CS)C(=O)N[C@@H](CCCCN)C(=O)N[C@@H](CS)C(=O)N[C@H](C(=O)N[C@@H](CCCNC(=N)N)C(=O)O)C(C)C [NCR13_AlaV1] (H-TKPCAAAAACKKFACRKPKVPKCINGFCKCVR-OH; N-terminus and C-terminus assumed) | 6 (≈ 20.7 µg/mL) | – | –
2 | CaNCR13: Wild-type nodule specific cysteine rich peptide from chickpea, SEQ ID NO: 1, expressed in Pichia pastoris and purified by FPLC and HPLC (TKPCQSDKDCKKFACRKPKVPKCINGFCKCVR; listed as Cicer arietinum) | – | – | MIC [2]: 3.2 µM; MIC [3]: 6.4 µM; MIC [4]: 0.41 µM; MIC [5]: 3.2 µM; MIC [6]: 0.41 µM
3 | CC[C@H](C)[C@H](NC(=O)[C@H](CS)NC(=O)[C@H](C)NC(=O)[C@H](C)NC(=O)[C@H](C)NC(=O)[C@H](CCCCN)NC(=O)[C@@H]1CCCN1C(=O)[C@H](CCCCN)NC(=O)[C@H](CCCNC(=N)N)NC(=O)[C@H](CS)NC(=O)[C@H](C)NC(=O)[C@H](Cc1ccccc1)NC(=O)[C@H](CCCCN)NC(=O)[C@H](CCCCN)NC(=O)[C@H](CS)NC(=O)[C@H](CC(=O)O)NC(=O)[C@H](CCCCN)NC(=O)[C@H](CC(=O)O)NC(=O)[C@H](CO)NC(=O)[C@H](CCC(N)=O)NC(=O)[C@H](CS)NC(=O)[C@@H]1CCCN1C(=O)[C@H](CCCCN)NC(=O)[C@@H](N)[C@@H](C)O)C(=O)N[C@@H](CC(N)=O)C(=O)NCC(=O)N[C@@H](Cc1ccccc1)C(=O)N[C@@H](CS)C(=O)N[C@@H](CCCCN)C(=O)N[C@@H](CS)C(=O)N[C@H](C(=O)N[C@@H](CCCNC(=N)N)C(=O)O)C(C)C [NCR13_AlaV4] (H-TKPCQSDKDCKKFACRKPKAAACINGFCKCVR-OH; N-terminus and C-terminus assumed) | 12 (≈ 42.6 µg/mL) | Inactive | –
4 | CC(C)[C@H](NC(=O)[C@H](CS)NC(=O)[C@H](CCCCN)NC(=O)[C@H](CS)NC(=O)[C@H](C)NC(=O)[C@H](C)NC(=O)[C@H](C)NC(=O)[C@H](C)NC(=O)[C@H](CS)NC(=O)[C@H](CCCCN)NC(=O)[C@@H]1CCCN1C(=O)[C@@H](NC(=O)[C@H](CCCCN)NC(=O)[C@@H]1CCCN1C(=O)[C@H](CCCCN)NC(=O)[C@H](CCCNC(=N)N)NC(=O)[C@H](CS)NC(=O)[C@H](C)NC(=O)[C@H](Cc1ccccc1)NC(=O)[C@H](CCCCN)NC(=O)[C@H](CCCCN)NC(=O)[C@H](CS)NC(=O)[C@H](CC(=O)O)NC(=O)[C@H](CCCCN)NC(=O)[C@H](CC(=O)O)NC(=O)[C@H](CO)NC(=O)[C@H](CCC(N)=O)NC(=O)[C@H](CS)NC(=O)[C@@H]1CCCN1C(=O)[C@H](CCCCN)NC(=O)[C@@H](N)[C@@H](C)O)C(C)C)C(=O)N[C@@H](CCCNC(=N)N)C(=O)O [NCR13_AlaV5] (H-TKPCQSDKDCKKFACRKPKVPKCAAAACKCVR-OH; N-terminus and C-terminus assumed) | 6 (≈ 21.1 µg/mL) | – | –
5 | TKPCQSDKDCKKFACAAAAVPKCINGFCKCVR (SEQ ID NO: 43) [NCR13_AlaV3] | – | Inactive | MIC (μM) Fusarium graminearum [1]: Inactive
6 | TKPCQSDKDCAAAACRKPKVPKCINGFCKCVR (SEQ ID NO: 42) [NCR13_AlaV2] | – | Inactive | MIC (μM) Fusarium graminearum [1]: Inactive
7 | CC[C@H](C)[C@H](NC(=O)[C@H](CS)NC(=O)[C@H](CCCCN)NC(=O)[C@@H]1CCCN1C(=O)[C@@H](NC(=O)[C@H](CCCCN)NC(=O)[C@@H]1CCCN1C(=O)[C@H](CCCCN)NC(=O)[C@H](CCCNC(=N)N)NC(=O)[C@H](CS)NC(=O)[C@H](C)NC(=O)[C@H](Cc1ccccc1)NC(=O)[C@H](CCCCN)NC(=O)[C@H](CCCCN)NC(=O)[C@H](CS)NC(=O)[C@H](CC(=O)O)NC(=O)[C@H](CCCCN)NC(=O)[C@H](CC(=O)O)NC(=O)[C@H](CO)NC(=O)[C@H](CCC(N)=O)NC(=O)[C@H](CS)NC(=O)[C@@H]1CCCN1C(=O)[C@H](CCCCN)NC(=O)[C@@H](N)[C@@H](C)O)C(C)C)C(=O)N[C@@H](CC(N)=O)C(=O)NCC(=O)N[C@@H](Cc1ccccc1)C(=O)N[C@@H](CS)C(=O)N[C@@H](CCCCN)C(=O)N[C@@H](CS)C(=O)N[C@H](C(=O)N[C@@H](CCCNC(=N)N)C(=O)O)C(C)C [NCR13, reference compound] (H-TKPCQSDKDCKKFACRKPKVPKCINGFCKCVR-OH; N-terminus and C-terminus assumed) | 6 (≈ 22 µg/mL) | – | –
